Laboratory results reported in publication PMC13372822 (The EMBO Journal, 2026).

Experiments:
OXGR1 [1] = molecular target: T1, OXGR1 (Homo sapiens, UniProt Q96P68); experiment: Immunofluorescence assay of OXGR1 internalization; type: cell-based; design: The full-length human OXGR1 and mutations were fused after the HA signal peptide and Flag tag; HA; expressed in transfected cells; host or cells: HEK293, transient; details: 300 μM AKG, 0 or 30 min at 37°C
Procedure: (§1) Figure. R2 | Effect of L2997x50P mutant on activation and internalization of OXGR1. […]
(§2) responses. Responses were normalized to 100% for wild-type. Data are mean ± S.E.M. from three independent experiments (n = 3), with three technical replicates performed for each […]
(§3) experiment. […] HEK293 cells transiently […]
(§4) transfected with HA-tagged OXGR1 -WT or L299 7x50P mutant, were incubated with 300 μM […]
(§5) OXGR1 were stained with anti-HA (green). Cell nuclei were (1 picture or pasted object on this page, not shown here)

OXGR1 [2] = molecular target: T1, OXGR1; experiment: cAMP assay, Gs pathway (OXGR1-Gs-cAMP-Assay); type: cell-based; design: The full-length human OXGR1 and mutations were fused after the HA signal peptide and Flag tag; HA signal peptide (N); Flag (N); expressed in transfected cells; host or cells: HEK293 (pcDNA3.0, transient electroporation); details: OXGR1 WT
Procedure: In brief, cells expressing OXGR1 were seeded in a plate at a density of 1 × 10^6 cells/well and cultured overnight. After 24 h culture, cells were harvested and re-suspended in DMEM containing 500 µM IBMX at a density of 2 × 10^5 cells/mL. Then, cells were plated onto 384-well assay plates at a density of 1000 cells/5 µL/well. Another 5 µL buffer containing compounds at various concentrations was added to the cells, and the incubation lasted for 30 min at 37 °C. Intracellular cAMP level was tested by a LANCE Ultra cAMP kit (PerkinElmer, TRF0264) and EnVision multiplate reader according to the manufacturer’s instructions.

OXGR1 [3] = molecular target: T2, OXGR1 (Homo sapiens, UniProt Q96P68, L299P); experiment: Immunofluorescence assay of OXGR1 internalization; type: cell-based; details: 300 μM AKG, 0 or 30 min at 37°C
T2 construct: The full-length human OXGR1 and mutations were fused after the HA signal peptide and Flag tag; HA; expressed in transfected cells; host or cells: HEK293, transient
Procedure: as §1, §2, §3, §4, §5

HCAR1 = molecular target: T3, HCAR1 (Homo sapiens, UniProt Q9BXC0); experiment: Calcium mobilization assay, HCAR1 in HEK293 stably expressing Gα16; type: cell-based; details: in words; related receptor
T3 construct: expressed in transfected cells; host or cells: HEK293 stably expressing Gα16
Procedure: (§6) HEK293 cells were obtained from ATCC (Manassas, VA, USA) and cultured in DMEM supplemented with 10% (v/v) FBS, 100 mg/L penicillin, and 100 mg/L streptomycin in 5% CO2 at 37 °C. For transient transfection, ~2.5 × 10^6 cells were mixed with 2 µg plasmids in 200 µL transfection buffer, and electroporation was carried out with a Scientz-2C electroporation apparatus (Scientz Biotech, Ningbo, China). The experiments were carried out 24 h after transfection. HEK293 cell lines stably expressing Gα16 were constructed by our laboratory.
(§7) For OXGR1, plasmids were transfected into HEK293 (other receptors were transfected into HEK293 stably expressing Gα16) and seeded at a density of 4 × 10^4 per well into 96-well culture plates and incubated for 24 h at 37 °C in 5% CO2. The next day, Cells were incubated with 2 μM/L Fluo-4 AM in HBSS supplemented with 5.6 mM/L D-glucose and 250 μM/L sulfinpyrazone at 37 °C for 45 min. […] Three independent measurements were repeated, i.e., three different transfections, with three technical replicates performed for each experiment. EC50 and Emax values for each curve were calculated by Prism 8.0 software (GraphPad Software).

[4] = tested on: SUCR1 mutants (variant named in the endpoint); experiment: Calcium mobilization assay, SUCR1 mutants in HEK293 stably expressing Gα16; type: cell-based, human; details: in words
Procedure: (§8) The full-length human SUCR1 and mutations were fused after the HA signal peptide and Flag tag. The constructs were cloned into pcDNA6.0 vector for HEK293 system.
as §6, §7

HCAR2 = molecular target: T4, HCAR2 (Homo sapiens, UniProt Q8TDS4); experiment: Calcium mobilization assay, HCAR2 in HEK293 stably expressing Gα16; type: cell-based; details: in words; related receptor
T4 construct: expressed in transfected cells; host or cells: HEK293 stably expressing Gα16
Procedure: as §6, §7

[5] = tested on: OXGR1 mutants (variant named in the endpoint); experiment: Calcium mobilization assay, OXGR1 mutants in HEK293; details: for Emax: each ligand normalized to WT (100%);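 as to all read-outs here: human OXGR1 variants transiently expressed in HEK293 cells, with intracellular calcium read out by Fluo-4 AM fluorescence, measured 24 h after transfection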
Procedure: as §8, §6, §7

T3 sequence (Q9BXC0 whole entry, species assumed): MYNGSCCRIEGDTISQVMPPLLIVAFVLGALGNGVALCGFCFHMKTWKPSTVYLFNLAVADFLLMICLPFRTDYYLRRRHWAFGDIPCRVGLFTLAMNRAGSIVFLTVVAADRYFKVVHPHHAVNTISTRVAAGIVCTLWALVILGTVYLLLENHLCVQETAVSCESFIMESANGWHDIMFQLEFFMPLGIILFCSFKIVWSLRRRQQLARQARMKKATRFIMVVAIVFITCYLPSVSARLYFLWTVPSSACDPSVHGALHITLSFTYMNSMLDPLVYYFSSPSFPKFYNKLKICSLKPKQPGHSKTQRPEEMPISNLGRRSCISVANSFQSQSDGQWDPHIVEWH
T4 sequence (Q8TDS4 whole entry): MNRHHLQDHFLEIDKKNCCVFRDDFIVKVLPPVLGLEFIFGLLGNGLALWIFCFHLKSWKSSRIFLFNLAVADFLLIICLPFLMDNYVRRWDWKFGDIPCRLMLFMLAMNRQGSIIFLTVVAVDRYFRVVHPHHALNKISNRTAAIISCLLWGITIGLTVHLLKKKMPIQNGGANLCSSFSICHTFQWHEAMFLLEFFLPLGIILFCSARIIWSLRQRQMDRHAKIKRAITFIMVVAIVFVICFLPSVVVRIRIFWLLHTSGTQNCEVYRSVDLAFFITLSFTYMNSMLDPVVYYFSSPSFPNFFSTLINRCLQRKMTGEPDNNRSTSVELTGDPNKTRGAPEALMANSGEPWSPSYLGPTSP

O=C(O)CCC(=O)C(=O)O [AKG, α-ketoglutarate]
internalization of WT-OXGR1 (OXGR1 [1]): internalizes
activation of Gs signaling (OXGR1 [2]): no detectable activation
internalization of OXGR1 L299P mutant (OXGR1 [3]): remains at the plasma membrane

C=C(CC(=O)O)C(=O)O [ITA, itaconate]
activation of HCAR1 (HCAR1): no detectable activation
ITA activation of SUCR1-L102F, SUCR1-L102F-F285A, SUCR1-L102F-F175L [4]: further enhanced ITA activation in both potency and efficiency
activation of Gs signaling (OXGR1 [2]): no detectable activation
activation of HCAR2 (HCAR2): no detectable activation
EC50 ([5]; OXGR1 D185A): > 1000 µM
Emax ([5]; OXGR1 D185A): 4.9± 2 WT%
EC50 ([5]; OXGR1 E97A): > 1000 µM
Emax ([5]; OXGR1 E97A): 47± 3 WT%
EC50 ([5]; OXGR1 F113A): > 1000 µM
Emax ([5]; OXGR1 F113A): 26± 3 WT%
EC50 ([5]; OXGR1 F113W): 21.3 ± 2 µM
increase in potency by F113W mutation ([5]; OXGR1 F113W versus WT): ~ 2 fold
Emax ([5]; OXGR1 F113W): 86± 2 WT%
EC50 ([5]; OXGR1 F130D): > 1000 µM
Emax ([5]; OXGR1 F130D): -5.6± 4 WT%
EC50 ([5]; OXGR1 F130E): > 1000 µM
Emax ([5]; OXGR1 F130E): -5.3± 3 WT%
EC50 ([5]; OXGR1 F250A): > 1000 µM
Emax ([5]; OXGR1 F250A): 2.2± 3 WT%
EC50 ([5]; OXGR1 F254A): > 1000 µM
Emax ([5]; OXGR1 F254A): 0.87± 3 WT%
EC50 ([5]; OXGR1 F257A): 52 ± 10 µM
Emax ([5]; OXGR1 F257A): 54± 2 WT%
EC50 ([5]; OXGR1 F257Y): 130 ± 40 µM
Emax ([5]; OXGR1 F257Y): 120± 10 WT%
EC50 ([5]; OXGR1 H114A): > 1000 µM
Emax ([5]; OXGR1 H114A): -4.6± 2 WT%
EC50 ([5]; OXGR1 H114L): > 1000 µM
Emax ([5]; OXGR1 H114L): -5.6± 5 WT%
EC50 ([5]; OXGR1 H258A): > 1000 µM
Emax ([5]; OXGR1 H258A): 3.0± 6 WT%
EC50 ([5]; OXGR1 H281A): 670 ± 60 µM
Emax ([5]; OXGR1 H281A): 74±3 WT%
EC50 ([5]; OXGR1 I121A): > 1000 µM
Emax ([5]; OXGR1 I121A): 15± 5 WT%
EC50 ([5]; OXGR1 I172A): > 1000 µM
Emax ([5]; OXGR1 I172A): -0.93± 2 WT%
EC50 ([5]; OXGR1 I285A): > 1000 µM
Emax ([5]; OXGR1 I285A): 34±5 WT%
EC50 ([5]; OXGR1 L36A): > 1000 µM
Emax ([5]; OXGR1 L36A): 6.5± 8 WT%
EC50 ([5]; OXGR1 L89A): > 1000 µM
Emax ([5]; OXGR1 L89A): -4.5± 2.0 WT%
EC50 ([5]; OXGR1 L117A): 500 ± 20 µM
Emax ([5]; OXGR1 L117A): 63± 4 WT%
EC50 ([5]; OXGR1 L124A): > 1000 µM
Emax ([5]; OXGR1 L124A): 36± 3 WT%
EC50 ([5]; OXGR1 L186A): > 1000 µM
Emax ([5]; OXGR1 L186A): -4.0± 2 WT%
EC50 ([5]; OXGR1 L186F): 180 ± 50 µM
Emax ([5]; OXGR1 L186F): 80± 9 WT%
EC50 ([5]; OXGR1 L299P): > 1000 µM
activation of OXGR1 L299P ([5]; OXGR1 L299P, in words): abolished
EC50 ([5]; OXGR1 M168I): 510 ± 60 µM
Emax ([5]; OXGR1 M168I): 100± 8 WT%
EC50 ([5]; OXGR1 N28A): 120 ± 30 µM
Emax ([5]; OXGR1 N28A): 100± 8 WT%
EC50 ([5]; OXGR1 R110A): > 1000 µM
Emax ([5]; OXGR1 R110A): 6.5± 2 WT%
EC50 ([5]; OXGR1 R110E): > 1000 µM
Emax ([5]; OXGR1 R110E): -2.0± 3 WT%
EC50 ([5]; OXGR1 R110Q): > 1000 µM
Emax ([5]; OXGR1 R110Q): -2.8± 0.7 WT%
EC50 ([5]; OXGR1 R177A): 320 ± 90 µM
Emax ([5]; OXGR1 R177A): 110± 3 WT%
EC50 ([5]; OXGR1 R261A): > 1000 µM
Emax ([5]; OXGR1 R261A): 6.7± 2 WT%
EC50 ([5]; OXGR1 R264A): > 1000 µM
Emax ([5]; OXGR1 R264A): 24± 3 WT%
EC50 ([5]; OXGR1 R268A): > 1000 µM
Emax ([5]; OXGR1 R268A): -4.3± 4 WT%
EC50 ([5]; OXGR1 R288A): > 1000 µM
Emax ([5]; OXGR1 R288A): 11±7 WT%
EC50 ([5]; OXGR1 R288E): > 1000 µM
EC50 ([5]; OXGR1 R288Q): > 1000 µM
Emax ([5]; OXGR1 R288Q): 14±1 WT%
EC50 ([5]; OXGR1 Y40A): > 1000 µM
Emax ([5]; OXGR1 Y40A): 6.9± 9 WT%
EC50 ([5]; OXGR1 Y82A): > 1000 µM
Emax ([5]; OXGR1 Y82A): 56± 7 WT%
EC50 ([5]; OXGR1 Y93A): > 1000 µM
Emax ([5]; OXGR1 Y93A): 3.3± 2 WT%
EC50 ([5]; OXGR1 Y284A): > 1000 µM
Emax ([5]; OXGR1 Y284A): -9±2 WT%
